Assay results from ChEMBL document CHEMBL5346948, “Expanding Chemical Probe Space: Quality Criteria for Covalent and Degrader Probes” (J Med Chem, 2023).
Values belong to the compound of their own block, whether it stands above or below them.

Columns and labels:
[1] = test system: GTPase KRas (Homo sapiens), P01116 [G12C]; test: Binding affinity to Hexahistidine-tagged recombinant human KRAS G12C mutant (1 to 169 residues) expressed in Escherichia coli assessed as kinact/Ki ratio
[2] = biological target: Tyrosine-protein kinase JAK1 (Homo sapiens, UniProt P23458); test: Inhibition of JAK1 (unknown origin)
[3] = biological target: T1, von Hippel-Lindau disease tumor suppressor/Bcl-2-like protein 1 (Homo sapiens, UniProt Q07817+P40337); test: Protac activity at VHL/BCL-XL in human MOLT-4 cells assessed as induction of protein degradation by measuring maximal degradation relative to control; type: cell-based
[4] = biological target: T1, von Hippel-Lindau disease tumor suppressor/Bcl-2-like protein 1; test: Protac activity at VHL/BCL-XL in human MOLT-4 cells assessed as induction of BCL-XL degradation incubated for 16 hrs by immunoblot analysis; type: cell-based
[5] = biological target: Cereblon/Bromodomain-containing protein 9 (Homo sapiens); test: PROTAC activity at CRBN/BRD9 in human HeLa cells assessed as protein degradation by Western blot analysis
[6] = test system: Cereblon/Bromodomain-containing protein 9 (Homo sapiens); test: PROTAC activity at CRBN/BRD9 in human HeLa cells assessed as induction of protein degradation by measuring maximal degradation relative to control
[7] = biological target: T2, Zinc finger protein Helios (Homo sapiens, UniProt Q9UKS7); test: Induction of IKZF2 degradation in human GripTite 293 MSR cells; type: cell-based
[8] = biological target: T2, Zinc finger protein Helios; test: Induction of IKZF2 degradation in human GripTite 293 MSR cells assessed as maximal degradation relative to control; type: cell-based
[9] = biological target: T3, Estrogen receptor (Homo sapiens) (UniProt P03372); test: Induction of ERalpha degradation in human MCF7 cells assessed as maximal degradation relative to control; type: cell-based
T3 sequence (whole entry): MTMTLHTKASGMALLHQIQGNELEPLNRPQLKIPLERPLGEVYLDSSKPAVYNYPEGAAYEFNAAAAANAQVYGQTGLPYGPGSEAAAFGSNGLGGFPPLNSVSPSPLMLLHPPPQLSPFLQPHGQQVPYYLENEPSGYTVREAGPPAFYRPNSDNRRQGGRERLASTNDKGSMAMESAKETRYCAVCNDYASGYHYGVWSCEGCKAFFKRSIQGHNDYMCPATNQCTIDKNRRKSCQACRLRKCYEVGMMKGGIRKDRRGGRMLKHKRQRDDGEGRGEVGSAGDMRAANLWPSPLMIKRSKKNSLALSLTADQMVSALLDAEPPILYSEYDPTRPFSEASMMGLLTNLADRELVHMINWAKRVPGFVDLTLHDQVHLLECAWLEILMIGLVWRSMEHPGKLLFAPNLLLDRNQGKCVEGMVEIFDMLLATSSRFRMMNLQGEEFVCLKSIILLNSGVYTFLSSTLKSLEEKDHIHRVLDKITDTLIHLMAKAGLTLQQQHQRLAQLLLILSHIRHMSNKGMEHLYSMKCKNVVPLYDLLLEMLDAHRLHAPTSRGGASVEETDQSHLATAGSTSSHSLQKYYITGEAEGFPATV

[10] = biological target: von Hippel-Lindau disease tumor suppressor/SWI/SNF-related matrix-associated actin-dependent regulator of chromatin subfamily A member 2 (Homo sapiens) (UniProt P51531+P40337); test: PROTAC activity at SMARCA2/VHL in human MV4-11 cells assessed as induction of protein degradation by measuring maximal protein degradation relative to control; type: cell-based
[11] = test system: GTPase KRas (Homo sapiens), P01116 [G12C]; test: Binding affinity to KRAS G12 mutant (unknown origin) assessed as kinact/Ki ratio
[12] = biological target: T4, Protein cereblon/RAC-alpha serine/threonine-protein kinase (Homo sapiens, UniProt P31749+Q96SW2); test: Protac activity at CRBN/Akt1 in human JeKo-1 cells assessed as Akt1 degradation by immunoblot analysis; type: cell-based
[13] = biological target: T4, Protein cereblon/RAC-alpha serine/threonine-protein kinase; test: Protac activity at CRBN/Akt1 in human JeKo-1 cells assessed as induction of Akt1 degradation by measuring maximal protein degradation relative to control; type: cell-based
[14] = biological target: T5, B-cell lymphoma 6 protein (Homo sapiens, UniProt P41182); test: Induction of BCL6 degradation in human SU-DHL-4 cells; type: cell-based
[15] = biological target: T5, B-cell lymphoma 6 protein; test: Induction of BCL6 degradation in human SU-DHL-4 cells assessed as maximal degradation relative to control; type: cell-based

- DC50 [5]: 0.003 µM
- Emax [6]: 96%
SMILES: COc1cc(-c2cn(C)c(=O)c(C)c2C)cc(OC)c1CN1CC[C@H](N2CCN(c3ccc(N[C@H]4CCC(=O)NC4=O)cc3F)CC2)C(F)(F)C1 [SENDEGOBRESIB]

- DC50 [7]: 0.011 µM
- Emax [8]: 69%
SMILES: O=C1CCC(N2Cc3cc(C4CCN(Cc5ccccc5)CC4)ccc3C2=O)C(=O)N1 (centres undefined)

- Emax [9]: 80%
SMILES: O=C1CC[C@H](N2Cc3cc(N4CCN(CC5CCN(c6ccc([C@@H]7c8ccc(O)cc8CC[C@@H]7c7ccccc7)cc6)CC5)CC4)ccc3C2=O)C(=O)N1

- Emax [10]: 81%
SMILES: Cc1ncsc1-c1ccc([C@H](CC[C@H](C)CCN2CCC(c3ccc4c(c3)n(C3CCCC3)c3nc(=O)c5c(Br)cccc5n43)CC2)NC(=O)[C@@H]2C[C@@H](O)CN2C(=O)[C@@H](NC(=O)C2(F)CC2)C(C)(C)C)cc1

- Ratio [11]: 27000 s⁻¹ M⁻¹
SMILES: C=CC(=O)N1CCN(c2nc(OC[C@@H]3CCCN3C)nc3c(F)c(-c4nc(N)cc(C)c4C(F)(F)F)c(Cl)cc23)[C@@H](C)C1

- DC50 [5]: < 0.001 µM
- Emax [6]: 97%
SMILES: COc1cc(-c2cn(C)c(=O)c3cnc(N4CCC4)cc23)cc(OC)c1CN1CCC(CN2CCC3(CC2)CN(c2ccc4c(c2)C(=O)N([C@H]2CCC(=O)NC2=O)C4)C3)CC1

The remaining lines, values behind:

SMILES: C=CC(=O)N1CC(N2CCN(C(=O)CNc3cc(C4(C)CC4)c(Cl)cc3O)CC2)C1
- Ratio [1]: 250 s⁻¹ M⁻¹

SMILES: CS(=O)(=O)N1CC[C@H](C#CC(=O)N2CCC[C@@H](c3ccc(Cl)c(Cl)c3)C2)C1
- IC50 [2]: 0.032 µM

SMILES: Cc1ncsc1-c1ccc([C@H](C)NC(=O)[C@@H]2C[C@@H](O)CN2C(=O)[C@@H](NC(=O)CCCCCC(=O)N2CCN(CC[C@H](CSc3ccccc3)Nc3ccc(S(=O)(=O)NC(=O)c4ccc(N5CCN(CC6=C(c7ccc(Cl)cc7)CCC(C)(C)C6)CC5)cc4)cc3S(=O)(=O)C(F)(F)F)CC2)C(C)(C)C)cc1 [DT-2216]
- Emax [3]: 91%
- DC50 [4]: 0.063 µM

SMILES: C=CS(=O)(=O)NC1CCN(C(=O)CNc2cc(I)c(Cl)cc2O)CC1
- Ratio [1]: 0.33 s⁻¹ M⁻¹

SMILES: Cc1ncsc1-c1ccc([C@H](C)NC(=O)[C@@H]2C[C@@H](O)CN2C(=O)[C@@H](NC(=O)CCCCCCCCCCNC(=O)CCc2cccc(-c3ccc4nc(-c5cccnc5N)n(-c5ccc(C6(N)CCC6)cc5)c4n3)c2)C(C)(C)C)cc1
- DC50 [12]: 0.023 µM
- Emax [13]: > 80%

SMILES: C=CC(=O)N1CCN(c2ncnc3c(F)c(-c4c(O)cccc4F)c(Cl)cc23)CC1
- Ratio [1]: 1100 s⁻¹ M⁻¹

SMILES: CNC(=O)COc1cc2cc(Nc3nc(N4C[C@H](C)C[C@H](C)C4)ncc3Cl)ccc2n(C)c1=O
- DC50 [14]: 0.02 µM
- Emax [15]: > 80%
